Like-named read-outs stand apart in the source and are kept apart here.

The test system of test [1] is platelet function in whole blood. Description: Closure time under flow conditions, ADP/PGE1/calcium test cartridge in PFA-100, citrated whole blood treated in vitro. It counts as cell-based, human. The settings on record: cut-off 81 seconds, MRS 2395 100 μmol/L; for Number of samples with closure times above cut-off (n = 11): ASA 30 μmol/L, citrated whole blood of 11 healthy donors. The protocol: For the preparation of a partition member for a test cartridge according to the invention a polyether sulfone filter membrane (Supor® membrane, Pall GmbH, Dreieich, Germany) was cut into strips. 1 μL of a solution comprising 7 μg/μL ADP (adenosine-5′-diphosphate potassium salt.2H2O, Sigma-Aldrich Chemie GmbH, Steinheim, Germany) and 5 ng/μL PGE1 (prostaglandin E1, Sigma-Aldrich Chemie GmbH, Steinheim, Germany) and 367.5 μg/μL CaCl2.2H2O (equivalent to 100 μg/μL Ca^2+ ions) were pipetted punctiform onto the membrane and the membrane was dried. Next a circular opening (aperture) with a diameter of 100 μm was punched out of the middle of the region of the membrane treated with the reagents. The membrane thus prepared was used as partition member in the measurement chamber of a PFA-100® test cartridge (Dade Behring Marburg GmbH, Marburg, Germany).
(§1) Venous blood was taken from 11 healthy donors and anticoagulated with sodium citrate (3.2% buffered Na citrate).
(§2) Aliquots of the citrated whole blood sample were treated in vitro with the P2Y(12) antagonist MRS 2395 (Sigma-Aldrich Chemie GmbH, Steinheim, Germany). For this purpose an ethanolic MRS 2395 stock solution (15 mg/mL) was mixed with the whole blood samples so that an end concentration of 100 μmol/L was obtained.
Further aliquots of the citrated whole blood samples were treated in vitro with the COX-1 inhibitor acetylsalicylic acid (abbr.: ASA; Sigma-Aldrich Chemie GmbH, Steinheim, Germany). […]
To determine the closure time as a measure of platelet function the whole blood samples described under Example 2a) were investigated with the aid of the ADP/PGE1/calcium test cartridge according to the invention described in Example 1 in a PFA-100® apparatus (Platelet Function Analyzer-100, Dade Behring Marburg GmbH, Marburg, Germany). […] The time required up to the closure of the aperture by formation of a blood clot was determined as closure time. Every sample investigated was determined in duplicate and the mean value of a duplicate determination was used as the measurement value.
Venous blood was taken from healthy donors and anticoagulated with sodium citrate (3.2% buffered Na citrate). […] Samples from 186 donors were determined in duplicate with a Col/Epi PFA-100® test cartridge [see Example 2c)]. Samples from 159 donors were determined in duplicate with an ADP/PGE1/calcium test cartridge according to the invention [see Examples 1 and 2c)].
The reference ranges (normal range) for the Col/Epi closure time and the ADP/PGE1 closure time were established in that the measurement value ranges in which 90% of the measurement values found for the healthy subjects lay were determined (90% central interval of the normal distribution of all measurements). […]

Test [2] shares this test system. Briefly: Closure time under flow conditions, conventional Col/Epi PFA-100 test cartridge, citrated whole blood treated in vitro. It counts as cell-based, human. The settings on record: cut-off 158 seconds, MRS 2395 100 μmol/L; for Number of samples with closure times above cut-off (n = 11): ASA 30 μmol/L, citrated whole blood of 11 healthy donors.
Test [3] shares this test system. Description: Closure time under flow conditions, ADP/PGE1 test cartridge without calcium in PFA-100, PPACK whole blood treated in vitro. It counts as cell-based, human. The note with it: cut-off 90 seconds, MRS 2395 150 μmol/L, ASA 30 μmol/L, MRS 2179 75 μmol/L; for Number of samples with closure times above cut-off (n = 10): ADP/PGE1 cartridge without calcium, PPACK whole blood of 10 healthy donors; for closure time relative to cut-off (FIG. 3, mean values): ADP/PGE1 cartridge, PPACK blood, 10 donors. The protocol: Venous blood was taken from 10 healthy donors and anticoagulated with 75 μM PPACK.
Aliquots of the whole blood samples were treated in vitro with the P2Y(12) antagonist MRS 2395 (Sigma-Aldrich Chemie GmbH, Steinheim, Germany). For this purpose an ethanolic MRS 2395 stock solution (15 mg/mL) was mixed with the whole blood samples so that an end concentration of 150 μmol/L was obtained.
Further aliquots of the whole blood samples were treated in vitro with the COX-1 inhibitor acetylsalicylic acid (abbr. ASA; Sigma-Aldrich Chemie GmbH, Steinheim, Germany). For this purpose an aqueous ASA stock solution (1 mg/mL) was mixed with the whole blood samples so that an end concentration of 30 μmol/L was obtained.
Further aliquots of the whole blood samples were treated in vitro with the P2Y(1) antagonist MRS 2179 (Sigma-Aldrich Chemie GmbH, Steinheim, Germany). For this purpose an aqueous MRS 2179 stock solution (1 mg/ml) was mixed with the whole blood samples so that an end concentration of 75 μmol/L was obtained.
(§3) After addition of the reagents the blood samples were incubated at room temperature for 5 minutes.
For the determination of the closure time as a measure of the platelet function the whole blood samples described under Example 4a) were investigated with the aid of a ADP/PGE1 test cartridge according to the invention in a PFA-100® apparatus (Platelet Function Analyzer-100, Dade Behring Marburg GmbH, Marburg, Germany). The ADP/PGE1 test cartridge according to the invention used was prepared essentially as described in Example 1 but without the partition member having been treated with CaCl2.2H2O. The test cartridge thus comprised 7 μg ADP and 5 ng PGE1 but no calcium ions.
700 μL of a blood sample was added to the reservoir of the temperature equilibrated test cartridge (+37° C.) and incubated at +37° C. in the apparatus for 3 minutes. Next a partial vacuum of −40 mbar was applied by the apparatus when the blood was sucked through a capillary (diameter 200 μm) from the reservoir and finally through an opening (aperture) of the partition member in the measurement chamber. The time that was required up to the closure of the aperture by formation of a blood clot was determined as closure time. Every sample investigated was determined in duplicate and the mean value of a duplicate determination was used as the measurement value.
Owing to the use of PPACK as anticoagulant the cut-off determined with citrated whole blood in the above-described examples cannot be used. Therefore, the reference range for the ADP/PGE1 closure time from the 10 samples of the healthy donors treated with PPACK was calculated by the determination of the 90% central interval of the normal distribution of the mean values of the duplicate determinations. This gave the following reference ranges for the closure times:
The upper limit of the 90% central interval was defined as cut-off, i.e. as threshold value for a platelet dysfunction.

In test [4] the test system is platelet aggregation in platelet rich plasma. Description: ADP-induced light transmission aggregometry (according to Born), in vitro treated samples, 2 μM ADP. It counts as cell-based, human. The note with it: MRS 2395 100 μmol/L in citrated blood, 5 min room temperature, PRP, 11 healthy donors. The protocol:
as §1, §2, §3
In order to check whether the samples treated with MRS 2395 actually show a reduced platelet aggregation, platelet rich (PRP) and platelet poor (PPP) plasma was prepared from aliquots of the untreated and MRS 2395-treated whole blood samples described under Example 2a), and the samples were then treated with 2 μM ADP. The PPP samples were used as blank controls. The photometric measurement of the aggregation reaction was carried out in the automated coagulation apparatus BCT® (Dade Behring Marburg GmbH, Marburg, Germany) under continuous stirring (600 rpm). The platelet aggregation of the samples treated with MRS 2395 was reduced by a mean of 27% compared with the platelet aggregation of the untreated samples.

Test [5] concerns platelet function in whole blood. The settings on record: Method 2 ADP cartridge without PGE1; 13 patients on 75 mg clopidogrel daily. The source says: The samples were investigated with the aid of different methods to determine platelet function. • 1. according to the invention under flow conditions and use of an ADP/PGE1/calcium PFA-100® test cartridge (see Examples 1 and 2c), cut-off: >81 seconds; • 2. under flow conditions and use of a PFA-100® test cartridge that differed from the test cartridge according to the invention in accordance with Example 1 in that it comprised no PGE1, cut-off: >78 seconds; • 3. with ADP-induced light transmission aggregometry (according to Born) with addition of 2 μM ADP (see Example 2b), cut-off: <40% light transmission at end of test; • 4. with ADP-induced light transmission aggregometry (according to Born) with the addition of 5 μM ADP (see example 2b), cut-off: <40% light transmission at end of test. This method is recommended by Sanofi-Aventis, the manufacturer of the clopidogrel preparation Plavix®, for the determination of the antithrombotic effect of the medicament.
The cut-offs for the individual test procedures were determined by preliminary investigations with whole blood and plasma samples of normal donors.
“+” means an antithrombotic effect could be detected. “−” means no antithrombotic effect could be detected. “0” means that the duplicate determination gave contradictory results, i.e. one value above and one value below the cut-off.

The test system of test [6] is platelet aggregation. The settings on record: Method 4 aggregometry 5 μM ADP; 13 patients on 75 mg clopidogrel daily.
For test [7], the system named is platelet function in whole blood. The note with it: Method 1 ADP/PGE1/calcium cartridge; 13 patients on 75 mg clopidogrel daily.
Test [8] has as its system platelet aggregation. The settings on record: Method 3 aggregometry 2 μM ADP; 13 patients on 75 mg clopidogrel daily.

Consider `CC(=O)Oc1ccccc1C(=O)O` [Acetylsalicylic acid, acetylsalicylic acid], for which the “Number of samples with closure times above cut-off (n = 11)” value in test [1] is 1; in test [1] (listed as acetylsalicylic acid), “one”; in test [2], 8. For the same compound, the results for the “Number of samples with closure times above cut-off (n = 10)” value (“Number of samples … (n = 10)” below) in test [3] and in test [3] (listed as acetylsalicylic acid) were 0 and “none”, respectively. Moreover, the “closure time relative to cut-off (FIG. 3, mean values)” value in test [3] is listed as “no prolongation of closure times”.
`CNc1ncnc2c1ncn2[C@H]1C[C@H](OP(=O)(O)O)[C@@H](COP(=O)(O)O)O1.N.N` [MRS 2179, 2′-deoxy-N6-methyladenosine-3′,5′-bisphosphate, diammonium salt]: in test [3], the “Number of samples … (n = 10)” value was found to be 10 and the “closure time relative to cut-off (FIG. 3, mean values)” value is listed as “closure times that lie significantly above the reference value (cut-off)”.
Consider `CNc1nc(Cl)nc2c1ncn2CC(COC(=O)C(C)(C)C)COC(=O)C(C)(C)C` [MRS 2395, 2,2-dimethyl-propionic acid 3-(2-chloro-6-methylaminopurin-9-yl)-2-(2,2-dimethyl-propionyloxymethyl)-propyl ester], for which the “Number of samples with closure times above cut-off (n = 11)” value in test [1] came out at 9; in test [2], 4. In addition, the “closure time relative to cut-off (FIG. 2, mean values)” value in test [1] (citrated blood, 11 donors) was “closure times that lie significantly above the upper reference value (cut-off)”; in test [2] (citrated blood, 11 donors), “lie to a greater extent below the upper reference value (cut-off)”. Also, in test [4], the “platelet aggregation reduced compared with untreated samples (mean)” value was found to be 27%. Further, the “Number of samples … (n = 10)” value in test [3] was determined as 9. The “closure time relative to cut-off (FIG. 3, mean values)” value in test [3] is “closure times that lie significantly above the reference value (cut-off)”.
`COC(=O)[C@H](c1ccccc1Cl)N1CCc2sccc2C1` [clopidogrel]: the “Sensitivity (share of 13 patients with detected antithrombotic effect)” value worked out at 46% in test [5], 62% in the test on platelet aggregation [6], 77% in test [7] and 69% in the test on platelet aggregation [8]. The “number of patients in whom the antithrombotic effect could be detected (of 13)” value in test [7] was determined as 10.
